Source: US20260317335A1, “COMPOUNDS OF FUSED PYRROLE RINGS OR FUSED PYRIDINE RINGS” (PHARMAENGINE, INC., priority 2023, published 2026)

System: HCC1569 (CCNE1-amplified breast cancer cell line)
Assay: Cell Proliferation Assay (CellTiter-Glo, 7 days)
Type: cell-based
Method: The sensitivity of cancer cell lines with normal or elevated CCNE1 levels to test compounds was evaluated in a cell proliferation assay. Cell lines were maintained in ATCC-recommended culture media supplemented with 10% FBS and 1% penicillin/streptomycin in a humidified 5% CO2 incubator. All test compounds were stored as 20 mM DMSO stock solutions.
On Day 0, CCNE1-wild type (wt) and CCNE1-amplified (amp) cells were seeded into 384-well plates and incubated for 16 to 24 hours in a humidified 5% CO2 incubator. On Day 1, test compounds were dispensed into wells at specified concentrations (n=2), with DMSO volume normalized to the highest concentration. Plates with compound-treated cells were incubated for 7 days in a humidified 5% CO2 incubator.
On Day 7, plates were removed from the incubator and equilibrated to room temperature. Relative inhibition was assessed by adding CellTiter-Glo reagent. Data were plotted as a percentage of the DMSO control for each compound in each cell line. IC50 values were calculated using a four-parameter nonlinear regression model (GraphPad Prism).

SMILES	IC50
Cc1ccc2[nH]ncc2c1-n1c(N)c2c3c(c(C)c(C)nc31)C=CNC2=O [Compound 126]	666 nM
Cc1nc2c3c(c1C)C=CNC(=O)c3c(N)n2-c1c(Cl)cc(F)c2[nH]ncc12 [Compound 136]	> 1000 nM
Cc1nc2c3c(c1C)C=CNC(=O)c3c(N)n2-c1c(C)c(F)cc2[nH]ncc12 [Compound 138]	> 1000 nM

Now those with a lower IC50, led by results:

IC50	SMILES
566 nM	Cc1nc2c3c(c1C)C=CNC(=O)c3c(N)n2-c1c(Cl)c(F)cc2[nH]ncc12 [Compound 137]
18 nM	Cc1cc2c(C(N)=O)c(N)n(-c3c(C)ccc(O)c3C)c2nc1C [Rp6306, reference compound]
